Source: patent publication US12030876B2, “Aryl hydrocarbon receptor (AHR) agonists and uses thereof” (Ikena Oncology, Inc., priority 2019, dated 2024)
Read-outs that look alike come from different tables or passages of the source.

Tests used:
AHR [1] = molecular target: T1, AHR (Homo sapiens, UniProt P35869); assay: DRE-Luciferase Reporter Assay, HepG2 (agonist); assay type: cell-based; conditions: read-out: DRE-Luc HepG2 - Agonist: Average EC50
T1 construct: endogenous in cells; host or cells: HepG2 (human), transfected with a DRE-luciferase reporter only
T1 sequence (P35869 11-848): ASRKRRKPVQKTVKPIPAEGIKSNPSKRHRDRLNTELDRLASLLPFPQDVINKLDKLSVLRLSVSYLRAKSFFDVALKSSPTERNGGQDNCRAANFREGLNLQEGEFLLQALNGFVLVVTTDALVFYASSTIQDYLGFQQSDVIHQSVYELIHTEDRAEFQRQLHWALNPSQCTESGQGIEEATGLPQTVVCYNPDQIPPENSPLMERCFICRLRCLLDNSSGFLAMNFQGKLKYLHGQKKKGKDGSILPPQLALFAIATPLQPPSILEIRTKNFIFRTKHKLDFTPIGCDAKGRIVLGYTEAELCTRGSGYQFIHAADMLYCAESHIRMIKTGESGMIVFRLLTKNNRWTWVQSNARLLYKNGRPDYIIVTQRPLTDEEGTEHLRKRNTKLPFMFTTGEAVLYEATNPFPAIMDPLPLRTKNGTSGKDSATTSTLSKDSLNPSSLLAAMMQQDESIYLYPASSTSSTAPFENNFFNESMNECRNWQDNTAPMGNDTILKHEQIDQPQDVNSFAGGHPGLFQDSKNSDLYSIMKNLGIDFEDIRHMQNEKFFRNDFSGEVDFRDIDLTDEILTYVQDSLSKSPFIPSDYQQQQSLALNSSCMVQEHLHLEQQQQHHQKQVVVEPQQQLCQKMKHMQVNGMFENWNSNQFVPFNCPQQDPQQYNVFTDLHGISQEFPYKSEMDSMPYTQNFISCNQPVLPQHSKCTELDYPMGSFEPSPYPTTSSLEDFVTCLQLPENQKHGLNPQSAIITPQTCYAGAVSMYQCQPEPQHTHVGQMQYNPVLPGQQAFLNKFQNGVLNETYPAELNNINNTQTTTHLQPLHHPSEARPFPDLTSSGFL
How it was run: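 Cells carrying a stably or transiently transfected DRE-luciferase reporter, plated overnight at 37 C, then given agonist for 6, 16 or 24 h before lysis and luciferase read-out. Signal scaled between no ligand (minimum) and activating ligand alone, e.g. TCDD (maximum); EC50 = concentration giving half-maximal luciferase activity.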

AHR [2] = molecular target: T2, AHR (Mus musculus, UniProt P30561); assay: P450 CYP1A1 Luciferase Assay, Hepa1.6 (agonist); assay type: cell-based, murine; conditions: Hepa1.6, Table 2
T2 sequence (P30561 1-848 F348L/P471L): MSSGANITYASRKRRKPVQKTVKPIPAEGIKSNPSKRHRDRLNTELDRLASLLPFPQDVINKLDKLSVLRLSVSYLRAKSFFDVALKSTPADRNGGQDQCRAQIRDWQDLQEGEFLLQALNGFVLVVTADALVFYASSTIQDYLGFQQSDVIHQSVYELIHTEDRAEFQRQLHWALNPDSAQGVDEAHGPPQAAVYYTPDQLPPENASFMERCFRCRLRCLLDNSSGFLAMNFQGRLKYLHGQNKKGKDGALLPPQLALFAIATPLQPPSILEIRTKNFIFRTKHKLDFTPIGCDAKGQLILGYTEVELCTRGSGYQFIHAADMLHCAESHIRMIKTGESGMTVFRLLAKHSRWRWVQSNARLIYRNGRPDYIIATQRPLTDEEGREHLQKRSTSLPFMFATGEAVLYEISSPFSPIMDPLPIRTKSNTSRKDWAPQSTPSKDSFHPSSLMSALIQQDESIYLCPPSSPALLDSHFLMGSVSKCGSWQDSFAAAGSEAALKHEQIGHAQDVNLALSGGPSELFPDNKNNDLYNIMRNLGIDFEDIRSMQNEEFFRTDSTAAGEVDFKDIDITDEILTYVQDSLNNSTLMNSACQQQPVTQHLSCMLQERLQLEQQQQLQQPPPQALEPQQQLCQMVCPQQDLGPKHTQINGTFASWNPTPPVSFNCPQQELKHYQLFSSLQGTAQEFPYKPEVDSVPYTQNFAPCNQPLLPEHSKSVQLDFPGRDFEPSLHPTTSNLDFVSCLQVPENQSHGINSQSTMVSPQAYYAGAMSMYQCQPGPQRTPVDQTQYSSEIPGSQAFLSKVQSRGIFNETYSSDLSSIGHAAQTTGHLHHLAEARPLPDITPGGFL
How it was run: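 Murine Hepa1-6 (or other murine/human lines) treated with agonist for 6, 16 or 24 h, then lysed and incubated with luminogenic CYP1A1 substrate (e.g. Luciferin-CEE). Luminescence normalised between no-ligand minimum and reference AHR ligand maximum; EC50 is concentration giving half-maximal activation.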

[3] = test system: DSS model of Inflammatory Bowel Disease (IBD); assay type: in vivo, C57Bl/6 mice; conditions: DSS model; compared with ITE administration; FIG. 8
Procedure: On study day −1, C57Bl/6 mice are weighed and randomized into treatment groups based on body weight. On study day 0, treatment groups are given 2.5% DSS in drinking water and treatment is initiated on the same day, with either vehicle or AHR agonist compound(s). On study day 7, DSS drinking water is replaced with normal drinking water for the remainder of the study. Body weight is measured daily during the entire study. On study day 10, animals are anesthetized with Isoflurane and bled to exsanguination followed by cervical dislocation. The entire colon is removed and measured for length, weight, and weight per length. Overall efficacy of test AR agonist compounds is based on body weight, colon length, and colon histopathology. Histopathology data is assessed for appropriate parameters, as determined by a pathologist and the parameters for these DSS studies can include inflammation, erosion, gland loss, edema, hyperplasia, neutrophil count, mucosal thickening, lymphoid aggregate count and lymphoid aggregate size. The different parameter scores can be added for a summed score for the study histopathology.

AHR [4] = molecular target: T2, AHR; assay: DRE-Luciferase Reporter Assay, Hepa1.6 (agonist); assay type: cell-based, murine; conditions: Hepa1.6, Table 3; read-out: DRE-Luc Hepa1.6 - Agonist: Average EC50
Procedure: DRE-Luciferase Reporter Assay
AHR binds to Dioxin Responsive Elements (DRE) upstream of genes that it activates. One measure of AHR activity is activation of a reporter gene, such as luciferase, downstream of one or multiple DRE elements. Luciferase activity reflects activation and inhibition of AHR in the cells expressing this reporter.
Murine Hepa1-6 or Hepa-1c1c7 or other murine cell line with a DRE-luciferase reporter either stably or transiently transfected are plated in media in plates (96-well, 384-well or other plates) and incubated overnight at 37 C in a CO2 incubator. Likewise, human HepG2 or other human cell line with a DRE-luciferase reporter either stably or transiently transfected are plated in media in plates (96-well, 384-well or other plates) and incubated overnight at 37 C in a CO2 incubator.
The next day, an AHR agonist compound is added. Cells are incubated for 6, 16 or 24 hours or another time point and then lysed for determination of luciferase activity as a read-out of the AHR activation. Luciferase can be measured with a commercial kit such as the Promega Luciferase kit or any kit or reagents that provide the luciferin substrate for measuring luciferase activity. The level of luciferase with only activating ligand (e.g. such as TCDD, kynurenine, ITE (2-(1H-indole-3-ylcarbonyl)-4-thiazolecarboxylic methyl ester), VAF347, BNF (beta-naphthoflavone), ICZ (6-formylindolo(3,2-b) carbazole or other AHR ligands) added is the maximum signal while the luciferase with no ligand is the minimum signal. EC50s can be determined as the concentration which activates half of the maximum luciferase activity.

| EC50 (AHR [1]; HepG2, Table 2) [nM] | EC50 (AHR [2]) [nM] | EC50 (AHR [1]; HepG2, Table 3) [nM] | EC50 (AHR [4]) [nM] | Structure (SMILES) | histology evaluation of inflammation [3] |
| --- | --- | --- | --- | --- | --- |
| – | – | < 10 | 100 to 1000 | C[n+]1cccc(-c2csc(Nc3cccc(C(F)(F)F)c3)n2)c1 [I-92] | – |
| – | – | < 10 | > 1000 | O=c1cc(-c2csc(Nc3cccc(C(F)(F)F)c3)n2)cc[nH]1 [I-93] | – |
| – | – | < 10 | < 10 | O=c1cccc(-c2csc(Nc3cccc(C(F)(F)F)c3)n2)[nH]1 [I-130] | – |
| – | – | > 1000 | > 1000 | Nc1ccnc(-c2csc(Nc3cccc(C(F)(F)F)c3)n2)c1 [I-168] | – |
| – | – | 10 to 100 | > 1000 | CN(C)c1cc(-c2csc(Nc3cccc(C(F)(F)F)c3)n2)ccn1 [I-153] | – |
| – | – | < 10 | 10 to 100 | CNc1cc(-c2csc(Nc3cccc(C(F)(F)F)c3)n2)ccn1 [I-154] | – |
| – | – | < 10 | 100 to 1000 | O=c1ccc(-c2csc(Nc3cccc(C(F)(F)F)c3)n2)c[nH]1 [I-83] | – |
| – | – | 10 to 100 | > 1000 | OCc1cccc(-c2csc(Nc3cccc(C(F)(F)F)c3)n2)c1 [I-125] | – |
| – | – | < 10 | < 10 | Nc1cncc(-c2csc(Nc3cccc(C(F)(F)F)c3)n2)c1 [I-164] | – |
| – | – | < 10 | < 10 | Nc1ccc(F)c(-c2csc(Nc3cccc(C(F)(F)F)c3)n2)c1 [I-166] | – |

Continued, compound first:

| Structure (SMILES) | EC50 (AHR [1]; HepG2, Table 2) [nM] | EC50 (AHR [2]) [nM] | EC50 (AHR [1]; HepG2, Table 3) [nM] | EC50 (AHR [4]) [nM] | histology evaluation of inflammation [3] |
| --- | --- | --- | --- | --- | --- |
| FC(F)(F)c1cccc(Nc2nc(-c3cccc(/N=N/c4cccc(-c5csc(Nc6cccc(C(F)(F)F)c6)n5)c4)c3)cs2)c1 [I-41] | 100 to 1000 | > 1000 | – | – | comparable activity |
| [O-][n+]1cccc(-c2csc(Nc3cccc(C(F)(F)F)n3)n2)c1 [I-121] | – | – | < 10 | > 1000 | – |
| Fc1ccc(-c2csc(Nc3cccc(C(F)(F)F)c3)n2)cc1/N=N/c1cc(-c2csc(Nc3cccc(C(F)(F)F)c3)n2)ccc1F [I-171] | – | – | > 1000 | > 1000 | – |
| C[N+](C)(C)CCOc1cc(-c2csc(Nc3cccc(C(F)(F)F)c3)n2)ccn1 [I-149] | – | – | 100 to 1000 | 100 to 1000 | – |
| CSc1cccc(Nc2nc(-c3cccc([N+](=O)[O-])c3)cs2)c1 [I-136] | – | – | < 10 | 100 to 1000 | – |
| C[N+]1(C)CCN(C(=O)c2cccc(Nc3nc(-c4ccc[n+]([O-])c4)cs3)c2)CC1 [I-159] | – | – | > 1000 | > 1000 | – |
| N#Cc1cccc(-c2nc(Nc3cccc(C(F)(F)F)c3)no2)c1 [I-152] | – | – | > 1000 | > 1000 | – |
| N#Cc1cccc(-c2csc(Nc3cccc(C(F)(F)F)n3)n2)c1 [I-90] | – | – | < 10 | > 1000 | – |
| C[N+](C)(CCNC(=O)N(c1cccc(C(F)(F)F)c1)c1nc(-c2cccc([N+](=O)[O-])c2)cs1)CCNC(=O)N(c1cccc(C(F)(F)F)c1)c1nc(-c2cccc([N+](=O)[O-])c2)cs1 [I-148] | – | – | 10 to 100 | 100 to 1000 | – |
| COC(=O)COc1cc(-c2csc(Nc3cccc(C(F)(F)F)c3)n2)ccn1 [I-160] | – | – | < 10 | > 1000 | – |
| NC(=O)c1cccc(Nc2nc(-c3ccc[n+]([O-])c3)cs2)c1 [I-147] | – | – | 100 to 1000 | > 1000 | – |
| O=[N+]([O-])c1cccc(-c2csc(Nc3cccc(C(F)(F)F)n3)n2)c1 [I-89] | – | – | < 10 | > 1000 | – |
| O=C(O)c1cc(/N=N/c2cc(-c3csc(Nc4cccc(C(F)(F)F)c4)n3)ccc2F)ccc1O [I-178] | – | – | > 1000 | > 1000 | – |
| N#Cc1cccc(-c2noc(Nc3cccc(C(F)(F)F)c3)n2)c1 [I-157] | – | – | 100 to 1000 | > 1000 | – |
| N#Cc1cccc(-c2csc(Nc3cncc(C(F)(F)F)c3)n2)c1 [I-97] | – | – | < 10 | 10 to 100 | – |
| Nc1cc(-c2csc(Nc3cccc(C(F)(F)F)c3)n2)c(F)cc1F [I-165] | – | – | < 10 | < 10 | – |
| N#Cc1cccc(-c2nsc(Nc3cccc(C(F)(F)F)c3)n2)c1 [I-109] | – | – | < 10 | > 1000 | – |
| [O-][n+]1cccc(-c2nsc(Nc3cccc(C(F)(F)F)c3)n2)c1 [I-117] | – | – | < 10 | > 1000 | – |
| O=C(O)c1cc(/N=N/c2cccc(-c3csc(Nc4cccc(C(F)(F)F)c4)n3)c2)cc(C(=O)O)c1 [I-176] | – | – | > 1000 | > 1000 | – |
| [O-][n+]1cccc(-n2cnc(Nc3cccc(C(F)(F)F)c3)n2)c1 [I-158] | – | – | 10 to 100 | > 1000 | – |
